According to patent US20250382274A1, “COMPOSITIONS AND METHODS FOR THE TREATMENT OF PARKINSON'S AND GAUCHER DISEASE” (CHILDREN'S HOSPITAL MEDICAL CENTER, priority 2024, published 2025):

Columns and labels:
[1] = molecular target: T1, GCase (purified enzyme, Velaglucerase alfa, VPRIV) (Homo sapiens, UniProt P04062); test: GCase AC50 enzyme activity assay; type: biochemical; conditions: pH 5.6, 4-MuGlu substrate, compounds 0-40 μM
T1 construct: purchased Shire Human Genetic Therapies, Cambridge, MA
T1 sequence (P04062 40-536): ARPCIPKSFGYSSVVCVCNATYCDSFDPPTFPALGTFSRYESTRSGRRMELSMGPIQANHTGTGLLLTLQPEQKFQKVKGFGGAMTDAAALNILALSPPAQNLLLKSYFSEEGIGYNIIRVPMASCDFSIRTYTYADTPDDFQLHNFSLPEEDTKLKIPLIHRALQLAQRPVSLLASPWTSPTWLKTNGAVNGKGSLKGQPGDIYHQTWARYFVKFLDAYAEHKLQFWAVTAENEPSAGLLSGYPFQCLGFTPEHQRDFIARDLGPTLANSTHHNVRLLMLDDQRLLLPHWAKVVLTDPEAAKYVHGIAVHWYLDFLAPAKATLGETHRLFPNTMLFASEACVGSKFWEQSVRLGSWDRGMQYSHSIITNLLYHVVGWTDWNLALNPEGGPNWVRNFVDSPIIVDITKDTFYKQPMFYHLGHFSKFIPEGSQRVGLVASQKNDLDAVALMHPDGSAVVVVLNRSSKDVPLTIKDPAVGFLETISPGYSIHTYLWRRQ
Procedure: An in vitro enzyme assay was performed through a dose response curve of Compounds (0-40 μM) with purified enzyme (Velaglucerase alfa, VPRIV®, Shire Human Genetic Therapies, Cambridge, MA) in citric phosphate [0.025 mM] buffer (pH 5.6) where 4-MuGlu [4 mM] was the substrate. Compounds were pre-incubated with the enzyme for 40 minutes at room temperature prior to substrate addition, and then incubated at 37° C. for 1 hour. AC50 represents the concentration of a Compound that produces 50% of its maximal response in the in vitro GCase activity assay.
(§1) GCase activities were determined fluorometrically with 4-MuGlu. The relative fluorescence unit (RFU) of 4-MuGlu standard curve is generated with the plate reader (M5, Molecular Devise) as 1 n mole=56500 RFU. The human mutant Gaucher fibroblasts were purchased from Coriell Institute (Camden, NJ): N370/ΔGG (Cat #: GM00852) and L444P/L444P (cat #: GM00877)

[2] = molecular target: T2, GCase in healthy human fibroblasts (Homo sapiens, UniProt P04062); test: EC50 cell-based assay for GCase, healthy human fibroblasts (GCase cell); conditions: 5 days compound treatment (0-20 μM)
T2 construct: Healthy human fibroblasts (GCase cell); endogenous in cells; host or cells: healthy human fibroblasts
T2 sequence (P04062 40-536): T1 sequence (P04062 40-536)
Procedure: In cell assays, GCase activity measurements were carried out on harvested cell pellets on the 5th day of Compound treatment. Healthy human fibroblasts (GCase cell), mutant N370/ΔGG (GCase N370S) or L444P/L444P (GCase L444P) were incubated with the Compound (0-20 μM) for 5 days with 15% fetal bovine serum (FBS) in Dulbecco's Modified Eagle Medium (DMEM) in 100 mm culture dishes. Fresh Medium with Compound were replaced every other day. On the 5th day of Compound treatment, harvested cell pellets were lysed with 1% Na-taurocholate (Tc) and 1% Triton X-100 (Tx), and mixed with the reaction buffer which contained 0.025 mM Citric phosphate buffer (pH 5.6), 0.25% Tc/Tx and 4 mM 4-MuGlu, then incubated at 37° C. for 1 hour. EC50 represents the concentration of a Compound that produces 50% of its maximal response in the cell-based GCase activity assay.
as §1

Row | AC50 [1] | EC50 [2] | SMILES
1 | 10 to 100 µM | < 10 µM | COc1ccc(NC(=O)N2Cc3cccc(C(=O)NCC4CCO4)c3C2)c(Cl)c1 (stereo not shown) [Compound 43, N2-(2-chloro-4-methoxyphenyl)-N4-(oxetan-2-ylmethyl)isoindoline-2,4-dicarboxamide]
2 | < 10 µM | < 10 µM | O=C(Nc1ccc(OC(F)(F)F)cc1)c1nc2cc(F)cc(C(=O)NCC3CC(F)CO3)c2o1 (stereo not shown) [Compound 49, 5-fluoro-N7-[(4-fluorotetrahydrofuran-2-yl)methyl]-N2-[4-(trifluoromethoxy)phenyl]-1,3-benzoxazole-2,7-dicarboxamide]
3 | < 10 µM | < 10 µM | COc1ccc(NC(=O)C(C)(C)Oc2ccccc2C(=O)N2CCOCC2)cc1 [Compound 7]
4 | < 10 µM | < 10 µM | CN(CC1CCO1)C(=O)c1cc(F)ccc1OC(C)(C)C(=O)NC1CCOCC1 (stereo not shown) [Compound 23, 2-(2-(tetrahydro-2H-pyran-4-ylcarbamoyl)propan-2-yloxy)-5-fluoro-N-methyl-N-((oxetan-2-yl)methyl)benzamide]
5 | < 10 µM | < 10 µM | CNc1ccc(NC(=O)c2nc3cc(F)cc(C(=O)NCC4CCO4)c3o2)cc1 (stereo not shown) [Compound 44, 5-fluoro-N2-(4-(methylamino)phenyl)-N7-(oxetan-2-ylmethyl)benzo[d]oxazole-2,7-dicarboxamide]
6 | < 10 µM | < 10 µM | CN(C)Cc1ccc(NC(=O)C(C)(C)Oc2ccccc2C(=O)NCC2CCCO2)cc1 (stereo not shown) [Compound 34, 2-(2-(4-((dimethylamino)methyl)phenylcarbamoyl)propan-2-yloxy)-N-((tetrahydrofuran-2-yl)methyl)benzamide]
7 | < 10 µM | < 10 µM | O=C(NCC1CCO1)c1cc(F)ccc1OCc1nc2cc(Cl)ccc2[nH]1 (stereo not shown) [Compound 25, 2-((6-chloro-1H-benzo[d]imidazol-2-yl)methoxy)-5-fluoro-N-((oxetan-2-yl)methyl)benzamide]
8 | < 10 µM | < 10 µM | CC(C)(Oc1ccccc1C(=O)NCC1CCO1)C(=O)NC1CCN(C2COC2)CC1 (stereo not shown) [Compound 18, 2-[1,1-dimethyl-2-[[1-(oxetan-3-yl)-4-piperidyl]amino]-2-oxo-ethoxy]-N-(oxetan-2-ylmethyl)benzamide]
9 | < 10 µM | < 10 µM | Cc1cc(NC(=O)c2nc3cc(F)cc(C(=O)NCC4CCO4)c3o2)ccn1 (stereo not shown) [Compound 20, 5-fluoro-N2-(2-methylpyridin-4-yl)-N7-((oxetan-2-yl)methyl)benzo[d]oxazole-2,7-dicarboxamide]
10 | < 10 µM | < 10 µM | COc1ccc(NC(=O)C(C)(C)Oc2ccc(F)cc2C(NCC2CCO2)C(F)(F)F)cc1 (stereo not shown) [Compound 46, 2-(4-fluoro-2-(2,2,2-trifluoro-1-((oxetan-2-ylmethyl)amino)ethyl)phenoxy)-N-(4-methoxyphenyl)-2-methylpropanamide]
11 | < 10 µM | < 10 µM | CC(C)(Oc1ccccc1C(=O)NCC1CCCO1)C(=O)NC1CCOCC1 (stereo not shown) [Compound 35, 2-[1,1-dimethyl-2-oxo-2-(tetrahydropyran-4-ylamino)ethoxy]-N-(tetrahydrofuran-2-ylmethyl)benzamide]
12 | < 10 µM | < 10 µM | O=C(Nc1ccc(OCF)cc1)c1nc2cc(F)cc(C(=O)NCC3CCO3)c2o1 (stereo not shown) [Compound 47, 5-fluoro-N2-[4-(fluoromethoxy)phenyl]-N7-(oxetan-2-ylmethyl)-1,3-benzoxazole-2,7-dicarboxamid]
13 | < 10 µM | < 10 µM | O=C(NCC1CCO1)c1cccc2c1CN(C(=O)NC1CCC(F)(F)CC1)C2 (stereo not shown) [Compound 41, N2-(4,4-difluorocyclohexyl)-N4-(oxetan-2-ylmethyl)isoindoline-2,4-dicarboxamide]
14 | < 10 µM | < 10 µM | O=C(Nc1ccc(OC(F)(F)F)cc1)c1nc2cc(F)cc(C(=O)NCC3CCO3)c2o1 (stereo not shown) [Compound 22, 5-fluoro-N7-((oxetan-2-yl)methyl)-N2-(4-(trifluoromethoxy)phenyl)benzo[d]oxazole-2,7-dicarboxamide]
